US10695299B2, “Disulfiram formulation” (UNIVERSITY OF WOLVERHAMPTON, priority 2015, dated 2020)
pIC50: −log10 of the molar value.

Key:
Huh7 HCC cell line = assay: MTT cytotoxicity assay and CI-isobologram, Huh7; format: cell-based; conditions: for pIC50: Homo sapiens, Huh-7, Huh7, 72 h, single drug; for combinational effect with Disulfiram-PLGA (CI-isobologram): Huh7, Cu 1 μM; for sensitivity of cells at hypoxic condition: Huh7, hypoxic versus normoxic culture, 72 h
Method: (§1) The PLC/PRF/5 and Huh7 HCC cell lines were cultured in DMEM (Lonza, Wokingham, UK) supplemented with 10% FCS, 50 units/ml penicillin, 50 μg/ml streptomycin.
(§2) The IC50s from single and two-drug-treated cells were detected. […] The combination index (CI) was determined by mutually exclusive equations.

PLC/PRF/5 HCC cell line = assay: MTT cytotoxicity assay and CI-isobologram, PLC/PRF/5; format: cell-based; conditions: for pIC50: Homo sapiens, PLC/PRF/5, 72 h, single drug; for combinational effect with Disulfiram-PLGA (CI-isobologram): PLC/PRF/5, Cu 1 μM; for sensitivity of cells at hypoxic condition: PLC/PRF/5, hypoxic versus normoxic culture, 72 h
Method: as §1, §2

PLC/PRF/5 cells = assay: Clonogenic assay, PLC/PRF/5; format: cell-based; conditions: 6 h exposure, 10 days culture, 5-FU 200 μM, Sorafenib 20 μM, CuCl2 1 μM, disulfiram-PLGA 200 nM
Method: (§3) […] The cells were collected and sub-cultured in 6-well plates containing drug-free medium at a cell density of 10^3/well. After 10 days culture, the clonogenic cells were determined by counting the colonies containing at least 50 cells.
(§4) The treated cells were collected and sub-cultured in 6-well plates containing drug-free medium at a cell density of 500 cells/well for another 10 days.

Huh7 cells = assay: Clonogenic assay, Huh7; format: cell-based; conditions: 6 h exposure, 10 days culture, 5-FU 200 μM, Sorafenib 20 μM, CuCl2 1 μM, disulfiram-PLGA 200 nM
Method: as §3, §4

[1] = format: in vitro ADME; conditions: horse, 100 μg/ml
Method: The eppendoff tubes were collected and protein was precipitated by the addition of 300 μl of absolute methanol at different time intervals. The supernatant was then subjected to HPLC measurement.
The free disulfiram was rapidly degraded in the serum to undetectable levels within 30 seconds (FIG. 1E). In contrast, disulfiram commenced its release from PLGA nanoparticles at 2 min which was equivalent to 34.23±3.38% of the initial drug loading and peaked in 4 min at 51.27±5.98% of the initial drug loading. The controlled release lasted for at least 24 hours. […] Importantly, after 4 hours incubation, the disulfiram concentration in the serum still remained at ˜90 μM which is markedly higher than the IC50s of disulfiram in a wide range of cancer types (˜50-500 nM).

[2] = cited from earlier work
[3] = test system: a wide range of cancer types; conditions: read-out: IC50s of disulfiram; cited from earlier work
PLC/PRF/5 xenografts = assay: Liver cancer xenograft experiments; format: in vivo, BALB/c Nu/Nu athymic nude mice; conditions: copper alone (CuGlu 6 mg/kg p.o.)
Method: PLC/PRF/5 cells (5×10^5) were subcutaneously injected at one front flank of the mice. When the tumor volume reached ˜200 mm^3, the tumor bearing mice were randomly subdivided into 6 groups (8 mice/group) e.g. control, CuGlu 6 mg/kg p.o., empty nanoparticles+CuGlu 6 mg/kg p.o., PLGA-disulfiram 2.5 mg/kg i.v.+CuGlu 6 mg/kg p.o., PLGA-disulfiram 5 mg/kg i.v.+CuGlu 6 mg/kg p.o., PLGA-disulfiram 10 mg/kg i.v.+CuGlu 6 mg/kg p.o. The drugs were administered 3 times/week for successive 3 weeks.
Five-week-old female BALB/c Nu/Nu athymic nude mice (Biotechology & Cell Biology Shanghai, China) were housed under pathogen-free conditions. PLC/PRF/5 cells (5×10^5) were subcutaneously injected at one front flank of the mice. When the tumour volume (V) reached ˜200 mm^3, the tumour bearing mice were randomly subdivided into 6 groups (8 mice/group) and treated 3 times/week e.g. control; copper gluconate (CuGlu) 6 mg/kg p.o., empty nanoparticles+CuGlu 6 mg/kg p.o., PLGA-disulfiram 2.5 mg/kg i.v.+CuGlu 6 mg/kg p.o.; PLGA-disulfiram 5 mg/kg i.v.+CuGlu 6 mg/kg p.o., PLGA-disulfiram 10 mg/kg i.v.+CuGlu 6 mg/kg p.o. The tumour volume was calculated by the following formula: V=(L×W^2)×0.5, where L is the length and W is the width of the tumour. The xenograft size was observed and recorded trice per week for 3 weeks. The animals were sacrificed after three weeks. […]

Molecule	pIC50 (Huh7 HCC cell line)	combinational effect with Disulfiram-PLGA (CI-isobologram) (Huh7 HCC cell line)	sensitivity of cells at hypoxic condition (Huh7 HCC cell line)	pIC50 (PLC/PRF/5 HCC cell line)	combinational effect with Disulfiram-PLGA (CI-isobologram) (PLC/PRF/5 HCC cell line)	sensitivity of cells at hypoxic condition (PLC/PRF/5 HCC cell line)	colony numbers versus control (PLC/PRF/5 cells)	colony numbers versus control (Huh7 cells)	time to degradation to undetectable levels in serum [1] [s]	previously published half-life data [2] [min]	pIC50 [3]	effect on tumor growth (PLC/PRF/5 xenografts)
O=c1[nH]cc(F)c(=O)[nH]1 [5-FU, 5-fluorouracil]	3.99	very significant synergistic	significantly resistant	3.91	very significant synergistic	significantly resistant	no significant difference	no significant difference				
[Cl][Cu][Cl] [CuCl2, copper(II) chloride]							no significant difference	no significant difference				
CNC(=O)c1cc(Oc2ccc(NC(=O)Nc3ccc(Cl)c(C(F)(F)F)c3)cc2)ccn1 [Sorafenib]	4.64	very significant synergistic	significantly resistant	4.51	very significant synergistic	significantly resistant	no significant difference	no significant difference				
CCN(CC)C(=S)SSC(=S)N(CC)CC [free disulfiram, Disulfiram]									≤ 30	4	6.30 to 7.30	
copper gluconate												no effect
